ChEMBL document CHEMBL1157205, “Design, synthesis, and biological evaluation of glycine-based molecular tongs as inhibitors of Abeta1-40 aggregation in vitro” (Bioorg Med Chem, 2008)

Assays:
[1] = Inhibition of amyloid beta (1 to 40) aggregation assessed as emission of thioflavin T fluorescence at 100 uM in presence of 1,1,1,3,3,3-hexaflouro-2-propanol
[2] = Inhibition of amyloid beta (1 to 40) aggregation assessed as emission of thioflavin T fluorescence in presence of 1,1,1,3,3,3-hexaflouro-2-propanol

| Compound | inhibition [1] [%] | IC50 [2] [µM] |
| --- | --- | --- |
| O=C(CNC(=O)c1cc(O)c(O)c(O)c1)NCC(=O)Nc1ccc(Oc2cccc(NC(=O)CNC(=O)CNC(=O)c3cc(O)c(O)c(O)c3)c2)cc1 | 80 | 28 |
| O=C(CNC(=O)c1ccccc1)Nc1ccc(Oc2cccc(NC(=O)CNC(=O)c3ccccc3)c2)cc1 | 7 | – |
| O=C(CNC(=O)c1cc([N+](=O)[O-])cc([N+](=O)[O-])c1)Nc1ccc(Oc2cccc(NC(=O)CNC(=O)c3cc([N+](=O)[O-])cc([N+](=O)[O-])c3)c2)cc1 | 44 | – |
| O=C(CNC(=O)CNC(=O)c1ccccc1)NCC(=O)Nc1ccc(Oc2cccc(NC(=O)CNC(=O)CNC(=O)CNC(=O)c3ccccc3)c2)cc1 | -3 | – |
| O=C(Nc1ccc(Oc2cccc(NC(=O)c3cc(O)c(O)c(O)c3)c2)cc1)c1cc(O)c(O)c(O)c1 | 70 | 12 |
| O=C(CNC(=O)C1CCCCC1)NCC(=O)Nc1ccc(Oc2cccc(NC(=O)CNC(=O)CNC(=O)C3CCCCC3)c2)cc1 | 17 | – |
| O=C(CNC(=O)CNC(=O)c1cc([N+](=O)[O-])cc([N+](=O)[O-])c1)NCC(=O)Nc1ccc(Oc2cccc(NC(=O)CNC(=O)CNC(=O)CNC(=O)c3cc([N+](=O)[O-])cc([N+](=O)[O-])c3)c2)cc1 | 4 | – |
| O=C(NCc1cccc(CNC(=O)c2cc([N+](=O)[O-])cc([N+](=O)[O-])c2)c1)c1cc([N+](=O)[O-])cc([N+](=O)[O-])c1 | 4 | – |
| O=C(CNC(=O)c1cc(O)c(O)c(O)c1)NCc1cccc(CNC(=O)CNC(=O)c2cc(O)c(O)c(O)c2)c1 | 39 | – |
| O=C(NCc1cccc(CNC(=O)c2ccccc2)c1)c1ccccc1 | 3 | – |
| O=C(CNC(=O)CNC(=O)c1cc([N+](=O)[O-])cc([N+](=O)[O-])c1)NCc1cccc(CNC(=O)CNC(=O)CNC(=O)c2cc([N+](=O)[O-])cc([N+](=O)[O-])c2)c1 | 23 | – |
| COc1cc(C(=O)NCc2cccc(CNC(=O)c3cc(OC)c(OC)c(OC)c3)c2)cc(OC)c1OC | 19 | – |
| O=C(CNC(=O)c1cc(O)c(O)c(O)c1)Nc1ccc(Oc2cccc(NC(=O)CNC(=O)c3cc(O)c(O)c(O)c3)c2)cc1 | 79 | 1.5 |
| COc1cc(C(=O)NCC(=O)NCC(=O)Nc2ccc(Oc3cccc(NC(=O)CNC(=O)CNC(=O)c4cc(OC)c(OC)c(OC)c4)c3)cc2)cc(OC)c1OC | 40 | – |
| COc1cc(C(=O)NCC(=O)NCC(=O)NCC(=O)O)cc(OC)c1OC | 11 | – |
| O=C(CNC(=O)CNC(=O)c1ccccc1)NCc1cccc(CNC(=O)CNC(=O)CNC(=O)c2ccccc2)c1 | 10 | – |
| O=C(CNC(=O)c1ccccc1)NCc1cccc(CNC(=O)CNC(=O)c2ccccc2)c1 | 9 | – |
| O=C(NCc1cccc(CNC(=O)c2cc(O)c(O)c(O)c2)c1)c1cc(O)c(O)c(O)c1 | 61 | – |

| Compound | inhibition [1] [%] | IC50 [2] [µM] |
| --- | --- | --- |
| Nc1cccc(Oc2ccc(NC(=O)CNC(=O)CNC(=O)c3cc([N+](=O)[O-])cc([N+](=O)[O-])c3)cc2)c1 | 0 | – |
| COc1cc(C(=O)NCC(=O)NCC(=O)NCc2cccc(CNC(=O)CNC(=O)CNC(=O)c3cc(OC)c(OC)c(OC)c3)c2)cc(OC)c1OC | 31 | – |
| COc1cc(C(=O)NCC(=O)NCc2cccc(CNC(=O)CNC(=O)c3cc(OC)c(OC)c(OC)c3)c2)cc(OC)c1OC | 28 | – |
| O=C(CNC(=O)CNC(=O)c1cc([N+](=O)[O-])cc([N+](=O)[O-])c1)NCCCNCCCNC(=O)CNC(=O)CNC(=O)c1cc([N+](=O)[O-])cc([N+](=O)[O-])c1 | 9 | – |
| COc1cc(C(=O)NCC(=O)Nc2ccc(Oc3cccc(NC(=O)CNC(=O)c4cc(OC)c(OC)c(OC)c4)c3)cc2)cc(OC)c1OC | 9 | – |
| COc1cc(C(=O)NCC(=O)NCC(=O)NCC(=O)Nc2ccc(Oc3cccc(NC(=O)CNC(=O)CNC(=O)CNC(=O)c4cc(OC)c(OC)c(OC)c4)c3)cc2)cc(OC)c1OC | 20 | – |
| O=C(CNC(=O)CNC(=O)c1ccccc1)NCC(=O)NCc1cccc(CNC(=O)CNC(=O)CNC(=O)CNC(=O)c2ccccc2)c1 | 19 | – |
| O=C(CNC(=O)c1ccccc1)NCC(=O)Nc1ccc(Oc2cccc(NC(=O)CNC(=O)CNC(=O)c3ccccc3)c2)cc1 | -3 | – |
| O=C(CNC(=O)CNC(=O)c1cc(O)c(O)c(O)c1)NCC(=O)NCc1cccc(CNC(=O)CNC(=O)CNC(=O)CNC(=O)c2cc(O)c(O)c(O)c2)c1 | 4 | – |
| O=C(CNC(=O)c1cc([N+](=O)[O-])cc([N+](=O)[O-])c1)NCc1cccc(CNC(=O)CNC(=O)c2cc([N+](=O)[O-])cc([N+](=O)[O-])c2)c1 | 33 | – |
| O=C(CNC(=O)CNC(=O)c1cc([N+](=O)[O-])cc([N+](=O)[O-])c1)NCC(=O)NCc1cccc(CNC(=O)CNC(=O)CNC(=O)CNC(=O)c2cc([N+](=O)[O-])cc([N+](=O)[O-])c2)c1 | 13 | – |
| O=C(CNC(=O)c1cc([N+](=O)[O-])cc([N+](=O)[O-])c1)NCC(=O)Nc1ccc(Oc2cccc(NC(=O)CNC(=O)CNC(=O)c3cc([N+](=O)[O-])cc([N+](=O)[O-])c3)c2)cc1 | 30 | – |
| COc1cc(C(=O)NCCCCC(=O)Nc2ccc(Oc3cccc(NC(=O)CCCCNC(=O)c4cc(OC)c(OC)c(OC)c4)c3)cc2)cc(OC)c1OC | 0 | – |
| COc1cc(C(=O)NCC(=O)NCC(=O)NCC(=O)NCc2cccc(CNC(=O)CNC(=O)CNC(=O)CNC(=O)c3cc(OC)c(OC)c(OC)c3)c2)cc(OC)c1OC | 15 | – |
| O=c1c(O)c(-c2ccc(O)c(O)c2)oc2cc(O)cc(O)c12 [QUERCETIN] | – | 0.8 |
| O=C(O)CNC(=O)CNC(=O)CNC(=O)c1cc([N+](=O)[O-])cc([N+](=O)[O-])c1 | 36 | – |
| O=C(CNC(=O)CNC(=O)c1cc(O)c(O)c(O)c1)NCc1cccc(CNC(=O)CNC(=O)CNC(=O)c2cc(O)c(O)c(O)c2)c1 | 5 | – |
